PMC5907308, “21st Brazilian Diabetes Society Congress” (Diabetology & Metabolic Syndrome, 2018)

Legend:
[1] = test system: patients with type 2 diabetes; test: Acute NEFA lowering with acipimox: 3 h OGTT and isoglycaemic IV glucose; format: in vivo, human
Method: Both tests were repeated after ACP ingestion (200 mg 2 h before and 1 h after starting glucose). C-peptide deconvolution was used to calculate IS rates; mathematical model to quantitate ß-cell function and IE. Main parameters: insulin secretion rate (ISR); glucose sensitivity (ßGS), i.e., the slope of the IS/glucose dose–response curve; glucose-induced potentiation (PGLU), a time-dependent modulation of the dose–response; incretin-induced potentiation (PINCR) calculated as the fold IS increment during OGTT compared to IV glucose.

obese patients = test system: obese patients
Description: Alpha-linolenic acid supplementation effects on endoplasmic reticulum stress in visceral adipose tissue from morbid obese patients. 2017. Tese (Doutorado)—Faculdade de Medicina de Ribeirão Preto, Universidade de São Paulo, Ribeirão Preto, 2017. Currently, obesity is considered a worldwide epidemic. It is associated with chronic inflammation and stress activation of the endoplasmic reticulum (ERE), related to the pathogenesis of various diseases such as type 2 diabetes mellitus, cardiovascular diseases, cancer, hypertension, among others. In this context, studies are needed to find alternatives that improve the inflammatory process. […] The objective of our study was to evaluate the effects of alpha-linolenic acid (ALA) supplementation on the metabolism and stress of the endoplasmic reticulum in obese patients. A prospective, randomized, placebo-controlled, double-blind study was conducted. In total, 52 patients were randomized to supplementation with 3 g/day of ALA or placebo, 27 individuals from the omega-3/ALA group and 25 from the control group. Lipid, glycidic and inflammatory profile were evaluated before and after supplementation. Visceral adipose tissue (TAV) was collected during bariatric surgery after supplementation. The fatty acid profile incorporated in the TAV was evaluated by gas chromatography. Genes were evaluated by real-time PCR.

[2] = test system: participants with type 2 diabetes and high cardiovascular risk; test: LEADER trial, renal outcomes; format: in vivo, human
Description: Background: The effects of liraglutide, a long-acting glucagon-like peptide-1(GLP-1) analog, on renal outcomes in type 2 diabetes are unknown. We conducted a randomized, double-blind, placebo-controlled trial comparing liraglutide vs placebo, both on a background of standard of care, in participants with type 2 diabetes and high cardiovascular risk.
Renal events were key secondary outcomes. The primary renal outcome was a composite of new onset of persistent macroalbuminuria, persistent doubling of serum creatinine, end stage renal disease (ESRD), or death due to renal disease. Risk of renal outcomes was determined using intention-to-treat in time-to-event analyses; competing risk of death was taken into account. Change of eGFR and loss of eGFR by > − 30% was also analyzed.

type 2 diabetic patient = test: Case report: liraglutide added to insulin degludec and metformin; format: in vivo, human; conditions: last evaluation
Method: patient one, type 2 diabetic for 3 years, using Gliclazide 60 mg/day and Metformin 1500 mg/day. They reported asthenia and difficulty losing weight. […] To optimize patient glycemic control and weight loss, Liraglutide 1.2 mg/day was initiated. […] The insulin dose was reduced to 10 U and reassessed in 30 days for possible discontinuation of insulin therapy. GLP- 1 receptor agonists stimulate insulin secretion in a […] manner, inhibit glucagon secretion and hepatic glucose output, delay gastric emptying, induce satiety, reduce appetite, and cause weight loss. […] It is a therapeutic option with action well established in weight loss, metabolic and glycemic improvement in the DM2 patient. However, its action on HbA1C reduction was independent of weight loss, evidencing intensive glycemic control with HbA1C between 6.5 and 7.0% even with discrete or even absent weight loss.

male Wistar rats = format: in vivo, rat
Description: Background: Glucocorticoids (GCs) are a group of drugs with immunosuppressive and antiinflammatory action, its mechanism of action is related to the suppressing the release of proinflammatory cytokines. In addition, GCs may interfere with carbohydrate metabolism, by antagonizing various peripheral actions of insulin, and from this action, trigger changes in the biochemical profile, mainly regarding the lipid representation. The present study aimed to evaluate the dose–response influence of prednisone in the biochemical profile of rats. […] The treatment was daily with a duration of 21 days, with fasting glycemic measures being evaluated in the first (zero) and last day (21). Then the rats were anesthetized and killed by decapitation, in order to collect the whole blood for serum biochemical analysis by spectrophotometry. All data were statistically evaluated with significance of 5%.

[3] = test system: patient with schizophrenia; test: New-onset diabetes caused by atypical antipsychotic, case report; format: in vivo, human
Description: Case report: A patient, previously healthy, had been diagnosed with schizophrenia and started treatment with risperidone. Due to the lack of response, the medication was switched to olanzapine. After 2 years on the new treatment, however, they experienced polyuria, polydipsia and polyphagia, with a weight gain of approximately 12 kg in a period of 2 years. They were diagnosed with new-onset diabetes mellitus and hypertriglyceridemia and was referred to our center for evaluation. They were started on metformin 500 mg/day, NPH insulin 9 units before breakfast and 7 units bedtime, and bezafibrate 200 mg/day. […] LDL was not calculated due to the hypertriglyceridemia. Insulin was titrated to achieve glycemic control and autoantibodies (antiGAD, antiICA and anti-insulin) were requested, but they were negative. A letter was addressed to the psychiatry staff regarding olanzapine’s adverse events, which was exchanged to ziprasidone. […] Insulin dosing was reduced and further withdrawn 3 months after initiation of ziprasidone. Currently, 2 months thereafter, they are on good glycemic control with metformin and alogliptin.

[4] = test system: NGT subjects and T2D patients; test: Hyperglycaemic clamp with somatostatin, without and with insulin infusion: renal glucose excretion; format: in vivo, human
Method: Then, a constant insulin infusion (1 mU min^−1 kg^−1) was started and maintained for additional 3 h (INS period) while clamping glycaemia at CT levels with the use of an ad hoc algorithm. Urines were collected separately for the two study periods for the measurement of glucose and creatinine.

[5] = test system: people with T2D and CKD stages 3-4; test: AWARD-7 phase 3 study, 26 weeks, both arms combined with insulin lispro; format: in vivo, human
[6] = test system: subjects with type 1 diabetes; test: onset 1, 26-week phase 3 trial, post hoc analysis by dose adjustment method; format: in vivo, human; conditions: before treatment
[7] = arms DU 1.5 mg and insulin glargine
[8] = subjects continuing carbohydrate counting (CC)
[9] = subjects using a simple bolus algorithm (BA)

Question: Which “decrease of NEFA OGTT-area-under-curve (AUC)” value ([1]; ACP 200 mg 2 h before and 1 h after starting glucose, n = 13, mean ± SD) does the source give for `Cc1cnc(C(=O)O)c[n+]1[O-]` [ACP, acipimox] here?
Answer: Its value is 55 ± 14%.

Question: And the “glucose sensitivity (ßGS)” value ([1]; after ACP, control 26 ± 9, p = ns)?
Answer: The value was 32 ± 11 pmol min^−1 m^−2 mM^−1.

Question: What about the “insulin secretion rate (ISR), isoglycaemic IV glucose” value ([1]; after ACP, control 58 ± 19) of the same compound?
Answer: Its value is 53 ± 15 nmol m^−2.

Question: What about the “insulin secretion rate (ISR), OGTT” value ([1]; after ACP, control 70 ± 23) of the same compound?
Answer: Its value is 64 ± 20 nmol m^−2.

Question: What about the “oral glucose sensitivity index, OGIS” value ([1]; after ACP, control 291 ± 60) of the same compound?
Answer: Its value is 326 ± 44 ml min^−1 m^−2.

Question: And the “incretin-induced potentiation (PINCR)” value ([1]; in vivo)?
Answer: The value was 1.17 ± 0.14 fold.

Question: `CC/C=C\C/C=C\C/C=C\CCCCCCCC(=O)O` [ALA, alpha-linolenic acid] was tested. Which “serum levels of IL-6, TNF-α and CRP” value (obese patients; after supplementation) did it give?
Answer: The value was “no change”.

Question: What about the “serum Leptin levels” value (obese patients; after supplementation, P = 0.0154) of the same compound?
Answer: Its value is “decrease”.

Question: What about the “serum IL-4” value (obese patients; after supplementation, p = 0.0211) of the same compound?
Answer: The value was “increase”.

Question: And the “serum IP-10” value (obese patients; after supplementation, p = 0.0410)?
Answer: The value was “decrease”.

Question: And the “incorporation of ALA, EPA and DHA into visceral adipose tissue (TAV)” value (obese patients; gas chromatography)?
Answer: The value was “Significant incorporation”.

Question: What about the “gene expression of XBP1, sXBP1, EIF2-α, GADD34 and CCT4 chaperone in TAV” value (obese patients; real-time PCR) of the same compound?
Answer: Its value is “increase”.

Question: What about the “gene expression of leptin and ATF-6 in TAV” value (obese patients; real-time PCR) of the same compound?
Answer: Its value is “decrease”.

Question: Which results are given for `CCCCCCCCCCCCCCCC(=O)N[C@@H](CCC(=O)NCCCC[C@H](NC(=O)[C@H](C)NC(=O)[C@H](C)NC(=O)[C@H](CCC(N)=O)NC(=O)CNC(=O)[C@H](CCC(=O)O)NC(=O)[C@H](CC(C)C)NC(=O)[C@H](Cc1ccc(O)cc1)NC(=O)[C@H](CO)NC(=O)[C@H](CO)NC(=O)[C@@H](NC(=O)[C@H](CC(=O)O)NC(=O)[C@H](CO)NC(=O)[C@@H](NC(=O)[C@H](Cc1ccccc1)NC(=O)[C@@H](NC(=O)CNC(=O)[C@H](CCC(=O)O)NC(=O)[C@H](C)NC(=O)[C@@H](N)Cc1c[nH]cn1)[C@@H](C)O)[C@@H](C)O)C(C)C)C(=O)N[C@@H](CCC(=O)O)C(=O)N[C@@H](Cc1ccccc1)C(=O)N[C@H](C(=O)N[C@@H](C)C(=O)N[C@@H](Cc1c[nH]c2ccccc12)C(=O)N[C@@H](CC(C)C)C(=O)N[C@H](C(=O)N[C@@H](CCCNC(=N)N)C(=O)NCC(=O)N[C@@H](CCCNC(=N)N)C(=O)NCC(=O)O)C(C)C)[C@@H](C)CC)C(=O)O` [Liraglutide]?
Answer: albuminuria vs placebo ([2]; in vivo): increased less; eGFR vs placebo ([2]; in vivo): decreased significantly less; primary renal outcome, participants ([2]; median follow-up 3.84 years, placebo 337 of 4672): 268 of 4668; primary renal outcome, HR vs placebo ([2]; p = 0.003): 0.787 [0.670;0.924]; new onset of persistent macroalbuminuria, HR vs placebo ([2]; p = 0.004): 0.74 [0.61;0.91]; new onset of persistent macroalbuminuria, participants ([2]; placebo 215 of 4672): 161 of 4668; HbA1c (type 2 diabetic patient): 6.4%; total weight loss (type 2 diabetic patient; […] of total weight): 6 kg

Question: Which results are given for `C[C@]12C=CC(=O)C=C1CC[C@@H]1[C@@H]2C(=O)C[C@@]2(C)[C@H]1CC[C@]2(O)C(=O)CO` [PRED, prednisone]?
Answer: alanine aminotransferase (ALT) (male Wistar rats; 1.25 mg/kg, control 68.6 ± 24.8): 79.0 ± 25.1 U/L; triglycerides (male Wistar rats; 5.0 mg/kg, 21 days, CONT 144.1 ± 39.6): 76.0 ± 36.2 mg/dL; VLDL (male Wistar rats; 5.0 mg/kg, CONT 22.8 ± 7.9): 15.2 ± 7.2 mg/dL; HDL (male Wistar rats; 5.0 mg/kg, CONT 53.0 ± 7.7): 23.8 ± 4.2 mg/dL

Question: How did the HDL ([3]; After 2 years on olanzapine) turn out when `Cc1cc2c(s1)Nc1ccccc1N=C2N1CCN(C)CC1` [olanzapine] was run?
Answer: Its HDL is 65 mg/dL.

Question: What about the Total cholesterol ([3]; After 2 years on olanzapine) of the same compound?
Answer: Its Total cholesterol is 570 mg/dL.

Question: And the triglycerides ([3]; After 2 years on olanzapine)?
Answer: The triglycerides was 3455 mg/dL.

Question: What about the weight gain ([3]; period of 2 years on olanzapine) of the same compound?
Answer: The weight gain was “approximately 12 kg”.

Question: What does the source list for “INS: constant insulin infusion (1 mU min^−1 kg^−1)”?
Answer: exogenous glucose infusion rate (GIR) ([4]; INS period (insulin 1 mU min^−1 kg^−1, 3 h), NGT, CT period 36 ± 16): 157 ± 46 µmol kg MM^−1 min^−1; fractional glucose excretion (FEG) ([4]; INS period, NGT, CT period 20 ± 5): 24 ± 3%; urinary glucose excretion (UGE), median [IQR] ([4]; INS period, NGT, CT period 690 [180]): 770 [320] µmol min^−1; fractional glucose excretion (FEG) ([4]; INS period, T2D, CT period 17 ± 6): 17 ± 7%; exogenous glucose infusion rate (GIR) ([4]; INS period, T2D, CT period 26 ± 12): 71 ± 47 µmol kg MM^−1 min^−1; urinary glucose excretion (UGE), median [IQR] ([4]; INS period, T2D, CT period 490[280]): 530[310] µmol min^−1

Question: With dulaglutide as the compound, how does the Nausea ([5]; arm DU 0.75 mg) read?
Answer: Its Nausea is 11.1%.

Question: What about the diarrhea ([5]; arm DU 0.75 mg) of the same compound?
Answer: Its diarrhea is 13.7%.

Question: What about the vomiting ([5]; arm DU 0.75 mg) of the same compound?
Answer: The vomiting was 5.8%.

Question: What about the “hypoglycemia rate (≤ 70 mg/dL)” value ([5]; arm DU 0.75 mg once weekly) of the same compound?
Answer: The value was 7.8 events/participant/year.

Question: And the Nausea [5, 7]?
Answer: Its Nausea is 19.8%.

Question: And the diarrhea [5, 7]?
Answer: Its diarrhea is 15.6%.

Question: What about the vomiting [5, 7] of the same compound?
Answer: The vomiting was 12.0%.

Question: And the “hypoglycemia rate (≤ 70 mg/dL)” value ([5]; arms DU 1.5 mg once weekly and titrated daily insulin glargine)?
Answer: Its value is 5.5 events/participant/year.

Question: Which HbA1c at baseline [6, 8] does the source give for “fast-acting insulin aspart [faster aspart]” here?
Answer: The HbA1c at baseline was 7.6%.

Question: And the HbA1c at baseline [6, 9]?
Answer: The HbA1c at baseline was 7.5%.

Question: How did the HbA1c at baseline [6, 8] turn out when insulin aspart [IAsp] was run?
Answer: Its HbA1c at baseline is 7.6%.

Question: What about the HbA1c at baseline [6, 9] of the same compound?
Answer: Its HbA1c at baseline is 7.6%.
